The source of these data is patent US8129361B2, “Amine compound and pharmaceutical use thereof” (Mitsubishi Tanabe Pharma Corporation, priority 2007, dated 2012).

What all share (type): in vivo
Series [1] concerns peripheral blood lymphocyte number. Put plainly: Peripheral blood lymphocyte number decreasing action in mouse. Conditions: ip, male BALB/cAnNCrj mice, intraperitoneal, 24 hr after administration, read-out: ED50 (dose necessary for reducing the lymphocyte count of the vehicle group (100%) by 50%).
The test system is the same in series [2]. Description: Peripheral blood lymphocyte number decreasing action in rat. Conditions: male F344 rats, oral, 24 hr after administration, read-out: ED50 (dose necessary for reducing the lymphocyte count of the vehicle group (100%) by 50%).
In a further series the test system is heart rate in rat. Put plainly: Action on heart rate in rat (telemetry, oral administration). Conditions: male Crl:CD(SD) rats, measured to 24 hr after administration. As to the method: Action on Heart Rate in Rat
Male Crl:CD(SD) rats were anesthetized by intraperitoneal administration of Nembutal (manufactured by Dainippon Sumitomo Pharma Co., Ltd.), and a pressure sensor connected to a telemetry transmitter (TL11M2-C50-PTX, manufactured by Data Sciences International) was inserted into the abdominal aorta and a transmitter was subcutaneously placed in the abdomen. The blood pressure and heart rate data were recorded by an analysis software (Dataquest A.R.T., manufactured by Data Sciences International) via a receiver (RPC-1, manufactured by Data Sciences International). After confirmation of recovery of circadian rhythm of the heart rate, the rats were subjected to the experiment. The compound of the present invention was suspended in 0.5% hydroxypropylmethylcellulose (manufactured by Shin-Etsu Chemical Co., Ltd.) and orally administered. The heart rate was measured from 72 hr before the administration to 24 hr after the administration.

The mark [3] stands for this setting: up to the dose of 30 mg/kg body weight.

Broadly, the ED50 is the midpoint of the dose-response relation.

As for `C[C@](N)(CO)CCc1ccc(OCCCc2ccc(Cl)c(Cl)c2)c(C(F)(F)F)c1.Cl` [Compound 204-1, (R)-2-amino-4-{4-[3-(3,4-dichlorophenyl)propoxy]-3-trifluoromethylphenyl}-2-methylbutanol hydrochloride], the ED50 in series [1] was determined as 0.005 mg/kg; in series [2], 0.03 mg/kg. For the same molecule, the “Effect on heart rate” value in the series on heart rate in rat (up to the dose of 10 mg/kg body weight) is on record as “did not reduce the heart rate”.

Take `Cc1cccc(CCCOc2ccc(CCC(N)(CO)CO)cc2C(F)(F)F)c1.Cl` [Compound 15-4, 2-amino-2-(2-{4-[3-(3-methylphenyl)propoxy]-3-trifluoromethylphenyl}ethyl)propane-1,3-diol hydrochloride]: the ED50 in series [1] was determined as 0.03 mg/kg; in series [2], 0.05 mg/kg. For the same molecule, the “Effect on heart rate” value in the series with heart rate in rat (setting [3]) is listed as “did not reduce the heart rate”.

On to `Cl.NC(CO)(CO)CCc1ccc(OCCCc2ccc(OC(F)(F)F)cc2)c(C(F)(F)F)c1` [Compound 52-5, 2-amino-2-(2-{4-[3-(4-trifluoromethoxyphenyl)propoxy]-3-trifluoromethylphenyl}ethyl)propane-1,3-diol hydrochloride], for which the ED50 in series [1] was determined as 0.08 mg/kg; in series [2], 0.05 mg/kg. Besides, the “Effect on heart rate” value in the series on heart rate in rat (setting [3]) was “did not reduce the heart rate”.

`Cl.NC(CO)(CO)CCc1ccc(OCCCc2ccc(C(F)(F)F)cc2)c(C(F)(F)F)c1` [Compound 11-4, 2-amino-2-(2-{3-trifluoromethyl-4-[3-(4-trifluoromethylphenyl)propoxy]phenyl}ethyl)propane-1,3-diol hydrochloride]: the figures for the ED50 in series [1] and in series [2] were 0.06 mg/kg and 0.09 mg/kg, respectively. Also, the “Effect on heart rate” value in the series with heart rate in rat (setting [3]) is on record as “did not reduce the heart rate”.

As for `Cl.NC(CO)(CO)CCc1ccc(OCCCc2ccc(Cl)c(Cl)c2)c(C(F)(F)F)c1` [Compound 38-5, 2-amino-2-(2-{4-[3-(3,4-dichlorophenyl)propoxy]-3-trifluoromethylphenyl}ethyl)propane-1,3-diol hydrochloride], the ED50 in series [1] and in series [2] was 0.07 mg/kg each time. In addition, the “Effect on heart rate” value in the series with heart rate in rat (setting [3]) is “did not reduce the heart rate”.

Take `Cl.NC(CO)(CO)CCc1ccc(OCCCc2cccc(C(F)(F)F)c2)c(C(F)(F)F)c1` [Compound 12-4, 2-amino-2-(2-{3-trifluoromethyl-4-[3-(3-trifluoromethylphenyl)propoxy]phenyl}ethyl)propane-1,3-diol hydrochloride]: the median effective dose (ED50) in series [1] stood at 0.04 mg/kg; in series [2] it was 0.11 mg/kg. Moreover, the “Effect on heart rate” value in the series on heart rate in rat (setting [3]) is recorded as “did not reduce the heart rate”.
